Test results published in the supplement of paper PMC10307832.

Assays:
Assay in all cases: relative viability (nuclei count vs DMSO), 5 days (fraction); higher = more cells survive
[1] = compound: COc1cccc2cc(-c3nc([C@H]4CC[C@H](C(=O)O)CC4)n4ncnc(N)c34)[nH]c12 [OSI-027] + CC(C)C[C@H](NC(=O)[C@H](Cc1ccccc1)NC(=O)c1cnccn1)B(O)O [Bortezomib] (partner 0.002 µM)
In short: (§1)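 Relative viability equals treated-well nuclei counts divided by vehicle-well nuclei counts. Counts came from 4× images of lung cancer cell lines grown in 1536-well plates for 5 days after pin-tool dosing on the day after seeding. Dosing used one drug alone or a fixed anchor-drug dose plus five library-drug doses (not always all listed) in √10 steps, and values are medians of duplicate plates.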

[2] = compound: Cc1nc(NC(=O)N2CCC[C@H]2C(N)=O)sc1-c1ccnc(C(C)(C)C(F)(F)F)c1 [Alpelisib] + CC(=O)c1c(C)c2cnc(Nc3ccc(N4CCNCC4)cn3)nc2n(C2CCCC2)c1=O [Palbociclib] (partner 0.5 µM)
In short: as §1

[3] = compound: Cc1nc(NC(=O)N2CCC[C@H]2C(N)=O)sc1-c1ccnc(C(C)(C)C(F)(F)F)c1 [Alpelisib] + C[C@]1(O)C[C@@H](c2nc(-c3ccc4ccc(-c5ccccc5)nc4c3)c3c(N)nccn32)C1 [Linsitinib] (partner 1 µM)
In short: as §1

[4] = compound: Cc1nc(NC(=O)N2CCC[C@H]2C(N)=O)sc1-c1ccnc(C(C)(C)C(F)(F)F)c1 [Alpelisib] + Nc1ncn([C@H]2C[C@H](O)[C@@H](CO)O2)c(=O)n1 [Decitabine] (partner 2 µM)
In short: as §1

| Cell Line | relative viability ([1]; first compound 0.01 µM) | relative viability ([1]; first compound 0.03162 µM) | relative viability ([1]; first compound 0.1 µM) | relative viability ([1]; first compound 0.3162 µM) | relative viability ([1]; first compound 1 µM) | relative viability ([2]; first compound 0.04 µM) | relative viability ([2]; first compound 0.1265 µM) | relative viability ([2]; first compound 0.4 µM) | relative viability ([2]; first compound 1.265 µM) | relative viability ([2]; first compound 4 µM) | relative viability ([3]; first compound 0.04 µM) | relative viability ([3]; first compound 0.1265 µM) | relative viability ([3]; first compound 0.4 µM) | relative viability ([3]; first compound 1.265 µM) | relative viability ([3]; first compound 4 µM) | relative viability ([4]; first compound 0.04 µM) | relative viability ([4]; first compound 0.1265 µM) | relative viability ([4]; first compound 0.4 µM) | relative viability ([4]; first compound 1.265 µM) | relative viability ([4]; first compound 4 µM) |
| --- | --- | --- | --- | --- | --- | --- | --- | --- | --- | --- | --- | --- | --- | --- | --- | --- | --- | --- | --- | --- |
| 201T | 1.14 | 1.15 | 1.07 | 1.12 | 1.1 | 0.374 | 0.335 | 0.357 | 0.315 | 0.29 | 0.93 | 0.936 | 0.989 | 0.806 | 0.917 | 0.85 | 0.78 | 0.88 | 0.772 | 0.628 |
| SK-LU-1 | 1.01 | 1.26 | 0.75 | 0.655 | 0.404 | 0.398 | 0.372 | 0.386 | 0.326 | 0.377 | 1.22 | 1.14 | 1.27 | 0.939 | 1.06 | 0.649 | 0.645 | 0.633 | 0.577 | 0.589 |
| LC-2-ad | 1.03 | 0.984 | 1.05 | 1.09 | 0.662 | 0.547 | 0.47 | 0.467 | 0.404 | 0.409 | 0.766 | 0.798 | 0.839 | 0.724 | 0.66 | 0.823 | 0.767 | 0.83 | 0.735 | 0.768 |
| LCLC-103H | 1.24 | 1.16 | 1.13 | 0.928 | 1 | 0.451 | 0.489 | 0.457 | 0.427 | 0.37 | 1.07 | 1.19 | 1.25 | 0.892 | 0.76 | 0.688 | 0.717 | 0.775 | 0.571 | 0.465 |
| NCI-H650 | 0.738 | 1.05 | 0.431 | 0.549 | 0.406 | 0.315 | 0.345 | 0.316 | 0.263 | 0.265 | 0.819 | 0.706 | 0.894 | 0.587 | 0.807 | 0.352 | 0.324 | 0.327 | 0.318 | 0.284 |
